The results in this text go back to ChEMBL document CHEMBL1155914 (Bioorg Med Chem, 2008).

Experiment [1] deals with T1, Acetylcholinesterase (Electrophorus electricus, UniProt O42275).
Description: Inhibition of Electrophorus electricus AChE by spectrophotometry
In experiment [2] the test system is SH-SY5Y. In words: Antioxidant activity in human SH-SY5Y cells assessed as decrease in H2O2-induced reactive oxygen species generation at 0.3 uM by fluorescence method. Format: functional. Also noted: scale not given: the % may be the effect or the level left.
Experiment [3] concerns the target Acetylcholinesterase (Homo sapiens, UniProt P22303).
Description: Inhibition of human erythrocyte AChE by Ellman's method
Experiment [4] concerns SH-SY5Y. In words: cells. As to conditions: Homo sapiens, read-out: INH.
Description: Inhibition of potassium chloride-induced cytosolic calcium levels in human SH-SY5Y cells at 0.3 uM by fluorescence method relative to control
The target in experiment [5] is T1, Acetylcholinesterase. This is another data set of the same source.
Description: Inhibition of Electrophorus electricus AChE by Ellman's method
Another experiment has as its target Cholinesterase (Homo sapiens, UniProt P06276).

T1 sequence (O42275 whole entry): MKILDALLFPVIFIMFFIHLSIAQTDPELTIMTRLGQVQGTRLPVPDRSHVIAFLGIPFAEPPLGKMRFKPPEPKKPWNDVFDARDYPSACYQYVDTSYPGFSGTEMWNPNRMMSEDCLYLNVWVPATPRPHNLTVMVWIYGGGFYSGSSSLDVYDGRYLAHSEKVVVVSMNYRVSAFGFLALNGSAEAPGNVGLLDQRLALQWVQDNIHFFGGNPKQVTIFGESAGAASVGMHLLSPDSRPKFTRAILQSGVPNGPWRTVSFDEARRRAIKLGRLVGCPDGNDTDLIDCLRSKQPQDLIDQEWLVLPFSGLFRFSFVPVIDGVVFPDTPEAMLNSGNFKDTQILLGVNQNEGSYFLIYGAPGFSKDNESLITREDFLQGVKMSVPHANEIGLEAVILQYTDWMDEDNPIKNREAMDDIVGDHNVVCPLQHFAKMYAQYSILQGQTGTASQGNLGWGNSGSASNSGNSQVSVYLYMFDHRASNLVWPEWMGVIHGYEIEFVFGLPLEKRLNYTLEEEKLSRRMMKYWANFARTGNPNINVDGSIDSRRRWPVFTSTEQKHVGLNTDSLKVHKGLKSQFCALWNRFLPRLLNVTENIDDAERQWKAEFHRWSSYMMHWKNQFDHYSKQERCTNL
Sequence of Cholinesterase (P06276 whole entry): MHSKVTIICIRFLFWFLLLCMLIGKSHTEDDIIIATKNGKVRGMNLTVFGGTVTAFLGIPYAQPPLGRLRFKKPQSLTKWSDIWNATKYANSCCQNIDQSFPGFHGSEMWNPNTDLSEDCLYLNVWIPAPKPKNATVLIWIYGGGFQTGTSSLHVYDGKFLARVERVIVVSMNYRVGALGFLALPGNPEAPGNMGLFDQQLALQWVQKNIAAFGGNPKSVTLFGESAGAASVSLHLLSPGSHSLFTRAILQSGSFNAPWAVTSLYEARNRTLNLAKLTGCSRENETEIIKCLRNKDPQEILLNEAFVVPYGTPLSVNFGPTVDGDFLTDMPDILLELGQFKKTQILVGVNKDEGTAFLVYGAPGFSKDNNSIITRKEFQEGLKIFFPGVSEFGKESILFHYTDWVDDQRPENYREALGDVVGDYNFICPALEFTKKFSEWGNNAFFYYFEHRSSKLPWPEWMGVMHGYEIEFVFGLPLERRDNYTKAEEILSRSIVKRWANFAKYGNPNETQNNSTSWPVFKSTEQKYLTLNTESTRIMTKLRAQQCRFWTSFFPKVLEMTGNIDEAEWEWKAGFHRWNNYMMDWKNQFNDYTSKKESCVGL
Sequence of Acetylcholinesterase (Homo sapiens, UniProt P22303) (P22303 whole entry): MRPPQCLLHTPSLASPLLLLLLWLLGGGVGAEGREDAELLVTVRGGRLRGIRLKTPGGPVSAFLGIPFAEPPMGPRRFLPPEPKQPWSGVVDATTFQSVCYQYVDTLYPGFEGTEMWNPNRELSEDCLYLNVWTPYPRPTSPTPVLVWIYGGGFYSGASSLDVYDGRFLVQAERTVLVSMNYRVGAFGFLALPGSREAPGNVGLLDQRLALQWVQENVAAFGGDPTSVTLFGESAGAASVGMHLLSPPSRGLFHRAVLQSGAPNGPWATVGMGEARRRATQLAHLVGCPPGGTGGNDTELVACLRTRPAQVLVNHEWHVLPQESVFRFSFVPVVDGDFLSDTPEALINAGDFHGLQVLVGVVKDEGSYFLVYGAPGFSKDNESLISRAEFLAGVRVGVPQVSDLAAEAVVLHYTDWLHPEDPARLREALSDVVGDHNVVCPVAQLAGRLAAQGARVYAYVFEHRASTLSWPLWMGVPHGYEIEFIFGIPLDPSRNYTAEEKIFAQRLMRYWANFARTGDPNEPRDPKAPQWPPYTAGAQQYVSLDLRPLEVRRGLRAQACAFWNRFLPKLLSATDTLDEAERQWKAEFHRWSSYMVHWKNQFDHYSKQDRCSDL

For orientation: IC50 means the concentration that gives 50% inhibition. For `CCOC(=O)C1=C(C)Oc2nc3c(c(N)c2C1c1ccncc1)CCCC3` (centres undefined), half-maximal inhibition on Acetylcholinesterase [1] (IC50) required 3000 nM.
Turning to `CCOC(=O)c1c(C)nc2nc3c(c(N)c2c1-c1ccccc1)CCCC3`, it took 820 nM to reach half-maximal inhibition on Acetylcholinesterase [1] (IC50).
Compound `CCOC(=O)c1c(C)nc2nc3c(c(N)c2c1-c1ccncc1)CCCC3` gave a 50% inhibitory concentration (IC50) against Acetylcholinesterase [1] of 1400 nM.
On the same count and under the same terms, then `CCOC(=O)C1=C(C)Oc2nc3c(c(N)c2C1c1ccc(OC)cc1)CCCC3` (centres undefined), with 870 nM.
For orientation: Ki means the dissociation constant of the complex between target and ligand, obtained from inhibition or displacement. Turning to `CC1(C)CC(=O)C2=C(C1)Nc1nc3c(c(N)c1C2c1ccc(F)cc1)CCCC3` (centres undefined), in the experiment on SH-SY5Y [2], the Activity is on record as 95.7%. Moreover, the IC50 against Acetylcholinesterase [3] was 1600 nM; against Acetylcholinesterase [1], 540 nM; against Cholinesterase, greater than 100000 nM. For the same compound, in the experiment with SH-SY5Y [4], the inhibition at 0.3 µM was found to be 32.9%. The Ki on Acetylcholinesterase [5] is 106 nM.
For the compound `COc1ccc(C2C3=C(CC(C)(C)CC3=O)Nc3nc4c(c(N)c32)CCCC4)cc1` (centres undefined), the Activity in the experiment on SH-SY5Y [2] came to 87.8%. The IC50 on Acetylcholinesterase [3] was 370 nM; at Acetylcholinesterase [1], 220 nM; on Cholinesterase, greater than 100000 nM. The inhibition at 0.3 µM in the experiment with SH-SY5Y [4] turned out to be 31%. The affinity on Acetylcholinesterase [5] corresponds to a Ki of 41.9 nM.
As to `CC1(C)CC(=O)C2=C(C1)Nc1nc3c(c(N)c1C2c1ccncc1)CCCC3` (centres undefined), the Activity with SH-SY5Y [2] is 82.9%. Besides, the IC50 on Acetylcholinesterase [3] is 2800 nM; against Acetylcholinesterase [1], 600 nM; at Cholinesterase, greater than 100000 nM. Further, the inhibition at 0.3 µM in the experiment on SH-SY5Y [4] came out at 45.1%. The compound further came in with an inhibition constant (Ki) on Acetylcholinesterase [5] of 157 nM.
The compound `CC1(C)CC(=O)C2=C(C1)Oc1nc3c(c(N)c1C2c1ccccc1)CCCC3` (centres undefined) registered an IC50 against Acetylcholinesterase [1] of 49000 nM.
Consider `Cc1ccc(C2C3=C(CC(C)(C)CC3=O)Oc3nc4c(c(N)c32)CCCC4)cc1` (centres undefined), for which, on Acetylcholinesterase [1], the IC50 was 52000 nM.
Consider `CC1(C)CC(=O)C2=C(C1)Nc1nc3c(c(N)c1C2c1ccccc1)CCCC3` (centres undefined), for which the Activity with SH-SY5Y [2] came out at 87.9%. Moreover, the results for the IC50 on Acetylcholinesterase [3], against Acetylcholinesterase [1] and against Cholinesterase were 710 nM, 320 nM and greater than 100000 nM, respectively. For the same compound, in the experiment on SH-SY5Y [4], the inhibition at 0.3 µM is 24.6%. For the same compound, the inhibition constant (Ki) at Acetylcholinesterase [5] amounted to 61.3 nM.
`Cc1ccc(C2C3=C(CC(C)(C)CC3=O)Nc3nc4c(c(N)c32)CCCC4)cc1` (centres undefined): the Activity with SH-SY5Y [2] is reported as 79.9%. Besides, the IC50 was 670 nM against Acetylcholinesterase [3], 230 nM at Acetylcholinesterase [1] and greater than 100000 nM against Cholinesterase. For the same compound, the inhibition at 0.3 µM with SH-SY5Y [4] is 30.9%. Affinity at Acetylcholinesterase [5] was put at a Ki of 38.9 nM.
On to `CC1(C)CC(=O)C2=C(C1)Oc1nc3c(c(N)c1C2c1ccc(F)cc1)CCCC3` (centres undefined), for which half-maximal inhibition against Acetylcholinesterase [1] (IC50) was put at 70000 nM.
Regarding `COc1ccc(C2C3=C(CC(C)(C)CC3=O)Oc3nc4c(c(N)c32)CCCC4)cc1` (centres undefined), at Acetylcholinesterase [1], the 50% inhibitory concentration (IC50) was found to be 4100 nM.
At Acetylcholinesterase [5], `CC[N+](C)(CC)CCC[n+]1c(-c2ccccc2)c2cc(N)ccc2c2ccc(N)cc21` [PROPIDIUM] yielded a Ki of 6800 nM.
